These are literature values, as cited in patent US7452871B2, “Compositions and methods for treating mammals with modified alginates and modified pectins” (EcoNugenics, Inc., priority 1999, dated 2008).

The subject of one data set is cancer metastasis. The settings on record: modified citrus pectin: oral administration.
The conditions of data set [1]: rats.
The conditions of data set [2]: rats. The source holds these as a separate data set.

Take modified citrus pectin: the “suppressing or preventing metastases” value in the data set with cancer metastasis was “may be effective in suppressing or preventing metastases”.

Turning to AG-10, the cholesterol excretion entry in data set [1] is listed as “enhanced cholesterol secretion”. The “blood glucose levels after glucose administration” value in data set [2] is listed as “inhibited blood glucose levels from rising”.

AG-270: the cholesterol excretion result in data set [1] is reported as “enhanced cholesterol secretion”. Moreover, the “blood glucose levels after glucose administration” value in data set [2] is given as “inhibited blood glucose levels from rising”.
